{"source": "patent US6521405B1", "about": "“Cell-free replication system and uses thereof” (Cancer Research Campaign Technology Limited, priority 1997, dated 2003)", "test_system": "G1 NIH 3T3 nuclei", "experiment": "Cell-free DNA replication assay: G1 nuclei in HeLa S phase cytosol, biotin-dUTP incorporation, percentage of nuclei replicating (staining yellow)", "type": "biochemical, mouse", "details": "about 50% yellow staining nuclei without inhibitor", "method": "Nuclear templates were prepared by Dounce homogenisation as described previously, but from NIH 3T3 cells. G0, quiescent, cells were prepared by allowing NIH 3T3 cells to proliferate until they reached confluence and arrested their proliferation. They were released from quiescence by trypsinization and replating at ¼ the cell density. Cells were harvested as described previously (Krude et al., 1997) at measured times after release from quiescence. The 3T3 cells treated this way pass through G1 and begin to enter S phase synchronously about 21 hrs later. Nuclei and cytosolic extract were produced by hypotonically swelling the cells, scrape harvesting and Dounce-homogenizing. […]\nIn vitro replication assays were performed in 50 μl reactions in 1.5 ml polypropylene tubes (Sarstedt or Eppendorf). […] Biotin-dUTP incorporation was detected by staining with fluorescein-streptavidin, whilst total DNA was visualized by propidium iodide. […] The percentage of nuclei replicating were calculated from many prints of confocal images. […]\nThe competence of G1 NIH 3T3 nuclei to replicate was determined by repeating the collection of G1 nuclei at different times following release from G0 arrest and incubating the nuclei with S phase cytosol in accordance with the procedures of Example 1. […]"}
{"smiles": "CC[C@H](CO)Nc1nc(NCc2ccccc2)c2ncn(C(C)C)c2n1", "note": "[roscovitin]", "values": [{"measurement": "decrease of yellow staining nuclei", "setting": "1 μM", "value": "~5", "unit": "fold"}, {"measurement": "decrease of yellow staining nuclei", "setting": "1 mM", "value": "~5", "unit": "fold"}]}
